System: SCID mice
Test: Preclinical dosimetry from biodistribution in mice, extrapolated to 70-kg Standard Adult (OLINDA/EXM 1.0)
Assay type: in vivo
Details: […] bladder voiding interval
Protocol: 3-5 mice were injected per timepoint with a mean 25.6±3.6 MBq of 18F-rhPSMA-7 and 28.5±4.8 MBq of 18F-rhPSMA-7.3, respectively. Mice, severe combined immunodeficiency (SCID) were used for the experiments.
Mice were sacrificed at the following timepoints: • ^18F-rhPSMA-7: 10, 20, 40, 60, 120 and 180 minutes after administration. • ^18F-rhPSMA-7.3: 10, 60, 120, 180 and 300 minutes after administration.
Urine, blood, heart, lung, spleen, pancreas, liver, stomach (emptied), small intestine (emptied), large intestine (emptied), kidneys, bladder, testis, fat, muscle (partial, femoral), femur, tail and brain. Urine was collected with a pipette in the CO2 gas chamber. In case of missing urination in the chamber the bladder was aspirated with an insulin syringe. Blood was withdrawn instantly after sacrifice with an insulin syringe from the heart. All other tissues and organs were dissected and transferred directly in plastic containers.
The counting rates of measurement samples were automatically corrected for decay. The radioactivity distribution ratios (unit: percentage of the injected dose (% ID) in the measurement samples were determined using the equation below. The sum of the counting rates from all measurement samples obtained from one mouse was designated as the counting rate for administrated radioactivity.
The radioactivity distribution ratio per unit weight of the measurement sample (unit: % ID/g) excluding urine and feces samples was determined by using the equation below. The weight of the measurement sample was determined by subtraction of the empty measurement container from the container including the sample.
For consistency of statistical calculations for each radiotracer the same number of time-points for ^18F-rhPSMA-7 and ^18F-rhPSMA-7.3 was used. Therefore, for ^18F-rhPSMA-7 the 10 min and 20 min time points were combined creating a 15 min endpoint.
The time-integral of activity for the accumulation in the significant source organs (AUCs) were generated both with numerical integration and physical decay according to J Juan et al., Journal of Pharmaceutical Sciences, 1993, 82:762-763.
In brief, to calculate a human dosimetry from the biodistribution in the mice, an extrapolation was necessary to account for the differences between the animals and humans. Normal-organ radiation doses were estimated for the 70-kg Standard Adult anatomic model using time-depending organ activity concentrations (in percent of the injected dose per gram, % ID/g) and total-body activities measured in the biodistribution studies in mice.
Tissue activity concentrations in mice were converted to tissue fractional activities in the 70-kg Standard Adult using the relative fractional organ masses in the Standard Adult and the “standard” 25-gramm mouse. Time-dependent total-body activity was fit to an exponential function and the difference between the injected activity and the total-body activity was assumed to be excreted to the urine because activity concentrations in the liver and GI tracer were low at all time points studied.
Organ residence time was calculated by numerical integration using the trapezoidal rule and the rest-of-body ^18F residence times was calculated as the difference between the total-body residence time and the sum of the organ and urine residence times. The bladder contents residence time was estimated using the dynamic voiding model in the OLINDA/EXM 1.0 dosimetry software. Finally, the Standard Adult mean organ dose equivalents (in mSv/MBq) and effective dose (also in mSv/MBq) were then calculated using OLIN DA/EXM 1.0.
Final calculation of radiation absorbed dose and dosimetry from biodistribution in mice: The tissues or organs in which a significant accumulation of radioactivity occurs (i.e., source organ) were kidney, spleen, lung, liver and heart. With respect to activity accumulation and clearance, a rapid clearance from blood and clearance to urine but relatively slow build-up in kidney was found.

CC(C)(C)[Si](F)(c1ccc(C(=O)NC[C@@H](NC(=O)CC[C@@H](C(=O)O)N2CCN(CC(=O)[O-])CCN(CC(=O)[O-])CCN(CC(=O)[O-])CC2)C(=O)N[C@H](CCCCNC(=O)CCC(=O)NCCC[C@@H](NC(=O)CC[C@H](NC(=O)N[C@@H](CCC(=O)O)C(=O)O)C(=O)O)C(=O)O)C(=O)O)cc1)C(C)(C)C.[Ga+3] [rhPSMA7.3, [^19F][^natGa]D-Dap-S-DOTAGA-rhPSMA7]
Pancreas dose Beta: 3.12E−03 mSv/MBq
Pancreas dose Photon: 8.29E−03 mSv/MBq
Pancreas dose Total: 1.14E−02 mSv/MBq
Red Marrow ED Cont.: 1.08E−03 mSv/MBq
Red Marrow EDE Cont.: 1.08E−03 mSv/MBq
Red Marrow dose Alpha: 0.00E000 mSv/MBq
Red Marrow dose Beta: 2.22E−03 mSv/MBq
Red Marrow dose Photon: 6.79E−03 mSv/MBq
Red Marrow dose Total: 9.01E−03 mSv/MBq
Skin ED Cont.: 6.95E−05 mSv/MBq
Skin EDE Cont.: 0.00E000 mSv/MBq
Skin dose Alpha: 0.00E000 mSv/MBq
Skin dose Beta: 3.12E−03 mSv/MBq
Skin dose Photon: 3.83E−03 mSv/MBq
Skin dose Total: 6.95E−03 mSv/MBq
Small Intestine ED Cont.: 6.27E−05 mSv/MBq
Small Intestine EDE Cont.: 0.00E000 mSv/MBq
Small Intestine dose Alpha: 0.00E000 mSv/MBq
Small Intestine dose Beta: 3.12E−03 mSv/MBq
Small Intestine dose Photon: 9.42E−03 mSv/MBq
Small Intestine dose Total: 1.25E−02 mSv/MBq
Spleen ED Cont.: 1.34E−04 mSv/MBq
Spleen EDE Cont.: 1.60E−03 mSv/MBq
Spleen dose Alpha: 0.00E000 mSv/MBq
Spleen dose Beta: 1.52E−02 mSv/MBq
Spleen dose Photon: 1.15E−02 mSv/MBq
Spleen dose Total: 2.67E−02 mSv/MBq
Stomach Wall ED Cont.: 1.22E−03 mSv/MBq
Stomach Wall EDE Cont.: 0.00E000 mSv/MBq
Stomach Wall dose Alpha: 0.00E000 mSv/MBq
Stomach Wall dose Beta: 3.12E−03 mSv/MBq
Stomach Wall dose Photon: 7.02E−03 mSv/MBq
Stomach Wall dose Total: 1.01E−02 mSv/MBq
Testes ED Cont.: 0.00E000 mSv/MBq
Testes EDE Cont.: 0.00E000 mSv/MBq
Testes dose Alpha: 0.00E000 mSv/MBq
Testes dose Beta: 3.12E−03 mSv/MBq
Testes dose Photon: 8.96E−03 mSv/MBq
Testes dose Total: 1.21E−02 mSv/MBq
Thymus ED Cont.: 4.10E−05 mSv/MBq
Thymus EDE Cont.: 0.00E000 mSv/MBq
Thymus dose Alpha: 0.00E000 mSv/MBq
Thymus dose Beta: 3.12E−03 mSv/MBq
Thymus dose Photon: 5.08E−03 mSv/MBq
Thymus dose Total: 8.20E−03 mSv/MBq
Thyroid ED Cont.: 4.14E−04 mSv/MBq
Thyroid EDE Cont.: 2.48E−04 mSv/MBq
Thyroid dose Alpha: 0.00E000 mSv/MBq
Thyroid dose Beta: 3.12E−03 mSv/MBq
Thyroid dose Photon: 5.15E−03 mSv/MBq
Thyroid dose Total: 8.27E−03 mSv/MBq
Total Body ED Cont.: 0.00E000 mSv/MBq
Total Body EDE Cont.: 0.00E000 mSv/MBq
Total Body dose Alpha: 0.00E000 mSv/MBq
Total Body dose Beta: 3.52E−03 mSv/MBq
Total Body dose Photon: 6.33E−03 mSv/MBq
Total Body dose Total: 9.86E−03 mSv/MBq
ULI Wall ED Cont.: 5.85E−05 mSv/MBq
ULI Wall EDE Cont.: 0.00E000 mSv/MBq
ULI Wall dose Alpha: 0.00E000 mSv/MBq
ULI Wall dose Beta: 3.12E−03 mSv/MBq
ULI Wall dose Photon: 8.57E−03 mSv/MBq
ULI Wall dose Total: 1.17E−02 mSv/MBq
Urinary Bladder Wall ED Cont.: 1.14E−02 mSv/MBq
Urinary Bladder Wall EDE Cont.: 1.36E−02 mSv/MBq
Urinary Bladder Wall dose Alpha: 0.00E000 mSv/MBq
Urinary Bladder Wall dose Beta: 1.56E−01 mSv/MBq
Urinary Bladder Wall dose Photon: 7.14E−02 mSv/MBq
Urinary Bladder Wall dose Total: 2.27E−01 mSv/MBq
Uterus ED Cont.: 1.18E−04 mSv/MBq
Uterus EDE Cont.: 1.41E−03 mSv/MBq
Uterus dose Alpha: 0.00E000 mSv/MBq
Uterus dose Beta: 3.12E−03 mSv/MBq
Uterus dose Photon: 2.04E−02 mSv/MBq
Uterus dose Total: 2.36E−02 mSv/MBq
